Data as given in patent US6413951B2, “20-fluoro-17(20)-vinyl steroids” (Aventis Pharmaceuticals, Inc., priority 2000, dated 2002).

Assays:
[1] = target: T1, human 5α-reductase (Homo sapiens, UniProt P31213); test: In vitro 5α-reductase assay (prostate microsomes), human; type: biochemical; details: read-out: Km values of testosterone, multiple experiments
T1 construct: microsomal preparations of the 5α-reductase enzyme from human or laboratory animal prostate tissue; from tissue; host or cells: human prostate, microsomes
T1 sequence (P31213 1-254): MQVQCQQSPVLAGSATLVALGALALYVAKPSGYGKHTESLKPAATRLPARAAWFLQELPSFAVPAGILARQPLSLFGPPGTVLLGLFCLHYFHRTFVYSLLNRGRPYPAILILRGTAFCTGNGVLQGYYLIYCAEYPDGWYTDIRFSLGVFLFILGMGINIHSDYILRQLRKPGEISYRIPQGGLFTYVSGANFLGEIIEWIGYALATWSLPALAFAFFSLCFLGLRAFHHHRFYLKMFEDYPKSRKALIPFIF
Description: (§1) In vitro 5α-reductase assay: The activity of the present compounds as inhibitors of steroid 5α-reductase was determined using microsomal preparations of the 5α-reductase enzyme from human or laboratory animal prostate tissue. Specifically, prostate tissue was rapidly frozen in liquid nitrogen following removal from the human patient or from a cynomologus monkey (Macaca fascicularis) and subsequently stored at −80° C. The tissue was thawed, minced, and then homogenized in 5 volumes of 0.05M potassium phosphate buffer, pH 7.0, using a Tekmar homogenizer with 3×5 second bursts, followed by 10 strokes in a Dounce homogenizer. The homogenate was sonified in three pulses of 5 seconds each at 50% of maximum power. The homogenate was subjected to differential centrifugation with each supernatant successively centrifuged at 600×G and […] in a Beckman J21 centrifuge followed by 120,000×G in a Beckman Model L5-75 ultracentrifuge. The final pellet, containing the microsomal fraction, was reserved and resuspended in 0.05M potassium phosphate buffer, pH 7.0, containing 25% (w/v) glycerol equal to 1 mL per 3 g wet tissue. The suspension was divided into aliquots, flash frozen using dry ice in methanol, and stored at −80° C. […] Protein concentration was determined by the BioRad dye binding method (BioRad, Richmond, Calif., USA). […]

[2] = test system: rat 5α-reductase; details: read-out: Km values of testosterone, multiple experiments
[3] = test system: cynomolgus monkey 5α-reductase; details: read-out: Km values of testosterone, multiple experiments
Description: as §1

[4] = test system: cynomologous monkey C17,20 lyase; test: In vitro C17,20 lyase assay (testicular microsomes); type: biochemical, cynomolgus monkey; set-up: unit of the concentration uncertain
Description: In vitro C17,20 lyase assay: Compounds were tested for inhibition of cynomologous monkey C17,20 lyase in vitro using microsomal preparations of the enzyme from testicular tissue. Testes were removed from anesthetized animals and flash frozen in liquid nitrogen. Microsomes were isolated as described in Schatzman et al., Anal. Biochem., 175, 219-226 (1988). The compound to be tested was dissolved in DMSO and diluted in 0.05M potassium phosphate buffer, pH 7.4, to give the desired concentrations of test compound, in an amount which contributes 0.1% v/v DMSO to the total assay volume. […] Control assays contained all components, including DMSO, but no test compound. All assays were performed in duplicate. […] The complete assay was incubated at 34° C. for 6 minutes. […] Radioactivity in the steriod peaks was measured using a Radiometric Model HS or Model A515 Flo-One detector. The enzyme activity for each assay was calculated from the conversion of substrate to products, and. the results expressed as percent inhibition of control.

[5] = Conc. 1 (unit uncertain), Preinc. 0 min
[6] = Conc. 1 (unit uncertain), Preinc. 40 min
[7] = Conc. 10 (unit uncertain), Preinc. 0 min
[8] = Conc. 10 (unit uncertain), Preinc. 40 min

## C[C@]12CC[C@H]3[C@@H](CCC4=CC(=O)CC[C@@]43C)[C@@H]1CC[C@@H]2O [testosterone, 17β-hydroxyandrost-4-en-3-one]
[1]
  Km: 0.125 to 0.273 µM
[2]
  Km: 0.74 to 0.9 µM
[3]
  Km: 0.025 to 0.091 µM

## C/C(F)=C1/CC[C@H]2[C@@H]3CC=C4C[C@@H](O)CC[C@]4(C)[C@H]3CC[C@]12C [E CH3, (17E)-20-fluoropregna-5,17(20)-dien-3β-ol]
other
  melting point: 129 to 133 °C
[4]; [5]
  % Inhibition: 54%
[4]; [6]
  % Inhibition: 60%
[4]; [7]
  % Inhibition: 88%
[4]; [8]
  % Inhibition: 94%

## C/C(F)=C1\CC[C@H]2[C@@H]3CC=C4C[C@@H](O)CC[C@]4(C)[C@H]3CC[C@]12C [Z CH3, (17Z)-20-Fluoropregna-5,17(20)-dien-3β-ol]
other
  melting point: 153 to 155 °C
[4]; [5]
  % Inhibition: 49%
[4]; [6]
  % Inhibition: 72%
[4]; [7]
  % Inhibition: 78%
[4]; [8]
  % Inhibition: 94%

## C[C@]12CC[C@H](O)CC1=CC[C@@H]1[C@@H]2CC[C@]2(C)/C(=C(\F)CO)CC[C@@H]12 [Z CH2OH, (17Z)-20-Fluoropregna-5,17(20)-diene-3β,21-diol]
other
  melting point: 198 to 203 °C
[4]; [5]
  % Inhibition: 96%
[4]; [6]
  % Inhibition: 94%
[4]; [7]
  % Inhibition: 100%
[4]; [8]
  % Inhibition: 100%

## C[C@]12CC[C@H](O)CC1=CC[C@@H]1[C@@H]2CC[C@]2(C)/C(=C(/F)CO)CC[C@@H]12 [E CH2OH, (17E)-20-Fluoropregna-5,17(20)-diene-3β,21-diol]
other
  melting point: 214 to 216 °C
[4]; [5]
  % Inhibition: 63%
[4]; [6]
  % Inhibition: 61%
[4]; [7]
  % Inhibition: 85%
[4]; [8]
  % Inhibition: 87%
